Test [1] addresses T1, C3a anaphylatoxin chemotactic receptor (Homo sapiens) (UniProt Q16581).
T1 sequence (whole entry): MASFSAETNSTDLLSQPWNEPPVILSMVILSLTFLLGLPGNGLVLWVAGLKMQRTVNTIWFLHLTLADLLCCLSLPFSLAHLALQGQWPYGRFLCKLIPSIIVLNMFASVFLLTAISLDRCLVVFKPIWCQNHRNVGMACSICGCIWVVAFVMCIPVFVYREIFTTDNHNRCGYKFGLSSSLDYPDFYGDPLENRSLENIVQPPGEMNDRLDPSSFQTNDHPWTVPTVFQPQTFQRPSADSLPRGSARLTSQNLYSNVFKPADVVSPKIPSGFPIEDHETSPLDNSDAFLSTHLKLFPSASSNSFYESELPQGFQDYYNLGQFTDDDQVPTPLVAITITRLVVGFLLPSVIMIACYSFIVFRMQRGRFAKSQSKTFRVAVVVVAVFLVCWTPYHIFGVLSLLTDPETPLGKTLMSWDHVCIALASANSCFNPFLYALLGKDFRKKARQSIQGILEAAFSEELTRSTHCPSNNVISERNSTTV
Nature of the test: Displacement of [125I]-C3a from C3aR in human MDM cells at 10 uM after 60 mins by microbeta scintillation counting analysis. Format: cell-based. (Displacement assays read how much labelled ligand stays bound in the presence of the test substance.)

The target in test [2] is T2, C5a anaphylatoxin chemotactic receptor 1 (Homo sapiens) (UniProt P21730).
T2 sequence (whole entry): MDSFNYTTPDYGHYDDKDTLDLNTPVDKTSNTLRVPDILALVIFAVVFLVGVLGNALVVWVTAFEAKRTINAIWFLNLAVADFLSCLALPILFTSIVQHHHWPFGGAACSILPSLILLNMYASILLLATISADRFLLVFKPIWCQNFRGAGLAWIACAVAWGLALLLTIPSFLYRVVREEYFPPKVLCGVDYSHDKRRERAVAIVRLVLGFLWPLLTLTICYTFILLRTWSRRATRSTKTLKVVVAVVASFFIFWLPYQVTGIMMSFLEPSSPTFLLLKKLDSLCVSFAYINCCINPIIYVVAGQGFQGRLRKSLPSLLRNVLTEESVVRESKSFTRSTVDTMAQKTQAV
Nature of the test: Displacement of [125I]-C5a from C5aR in human MDM cells at 20 uM after 60 mins by microbeta scintillation counting analysis. Format: cell-based.

For test [3], the target named is T1, C3a anaphylatoxin chemotactic receptor (Homo sapiens). Nature of the test: Agonist activity at C3aR in human MDM cells assessed as intracellular calcium efflux at 1 uM measured for 60 secs by fluorescence based receptor desensitization assay. Format: functional, cell-based. On the technique in general: Calcium assays in cells follow changes in intracellular calcium, usually with a dye or a luminescent sensor.

Test [4] has the same target. Kind of test: Agonist activity at C3aR in human MDM cells assessed as induction of intracellular Ca2+ release measured for 60 secs in presence of C3a antagonist SB290157 by fluorescence assay. Format: functional, cell-based.
Test [5] deals with T3, C3a anaphylatoxin chemotactic receptor (Homo sapiens, UniProt Q16581).
T3 sequence (Q16581 whole entry): T1 sequence (whole entry)
Nature of the test: Displacement of [125I]-C3a from C3aR in human MDM cells after 60 mins by microbeta scintillation counting analysis. Format: cell-based.

The target in test [6] is T3, C3a anaphylatoxin chemotactic receptor. Nature of the test: Agonist activity at C3aR in human MDM cells assessed as inhibition of C3a-induced Ca2+ response measured for 60 secs by fluorescence assay. Format: functional, cell-based.

The source made the active and inactive calls. The calls are words filed in the database; no cut-off is given here.

As for `CC(C)C[C@H](NC(=O)OC(C)(C)C)c1nc(C(=O)N[C@@H](CCCNC(N)=O)C(=O)O)co1`, the inhibition entry in test [1] and in test [2] was “inactive” each time.

By IC50 is commonly meant the point on the concentration scale where inhibition reaches its midpoint. One may read the EC50 as the concentration needed to bring the measured effect to its halfway point. For `Cc1oc([C@H](CC(C)C)NC(=O)OC(C)(C)C)nc1C(=O)N[C@@H](CCCNC(=N)N)C(=O)O`, the outcome in test [3] and in test [4] was inactive. For the same molecule, the inhibition result in test [2] was “inactive”. For the same molecule, the IC50 in test [5] amounted to 14 nM. Moreover, the EC50 in test [6] came to 45 nM.

For `CC[C@H](C)[C@H](NC(=O)c1cncc(Br)c1)c1nc(C(=O)N[C@@H](CCCNC(=N)N)C(=O)O)co1`, in test [3], the result was inactive. Moreover, in test [2], the inhibition result was “inactive”. The same molecule had an IC50 in test [5] of 5 nM.

In the case of `CC[C@H](C)[C@H](NC(=O)c1cncc(Br)c1)c1nc(C(=O)NCCCCNC(=N)N)c(C)o1`, the inhibition entry in test [1] and in test [2] was “inactive” throughout.

As for `CC[C@H](C)[C@H](NC(=O)C1(C(C)C)C=CCC=C1)c1nc(C(=O)N[C@@H](CCCNC(=N)N)C(=O)O)co1`, the inhibition result in test [2] is “inactive”. In test [5], this molecule registered an IC50 of 754 nM. For the same molecule, the EC50 in test [6] came to 740 nM.

Take `CC(C)C[C@H](NC(=O)Cc1ccc(F)cc1)c1nc(C(=O)N[C@@H](CCCNC(=N)N)C(=O)O)co1`: in test [3], the result was inactive. Also, in test [2], the inhibition result is “inactive”. The molecule further showed an IC50 in test [5] of 102 nM.

For the molecule `CC[C@H](C)[C@H](NC(=O)OC(C)(C)C)c1nc(C(=O)N[C@@H](CCCNC(=N)N)C(=O)O)co1`, the outcome in test [3] was inactive. The inhibition result in test [2] was “inactive”.

For the molecule `CC(C)C[C@H](NC(=O)c1c[nH]c2ccccc12)c1nc(C(=O)N[C@@H](CCCNC(=N)N)C(=O)O)co1`, the result in test [3] and in test [4] was inactive. Besides, the inhibition result in test [2] was “inactive”.

Take `CC[C@H](C)[C@H](NC(=O)c1ccc(OC)cc1OC)c1nc(C(=O)N[C@@H](CCCNC(=N)N)C(=O)O)co1`: the inhibition result in test [2] is “inactive”. In test [5], this molecule gave an IC50 of 870 nM.

`CC(C)C[C@H](NC(=O)OC(C)(C)C)c1nc(C(=O)N[C@@H](CCCNC(=N)N)C(=O)O)co1`: the outcome in test [3] was inactive. Also, the inhibition entry in test [2] is “inactive”. In test [5], this molecule showed an IC50 of 20 nM. Also, in test [6], the EC50 stood at 19 nM.

In the case of `CC[C@H](C)[C@H](NC(=O)c1ccc2ccccc2n1)c1nc(C(=O)N[C@@H](CCCNC(=N)N)C(=O)O)co1`, in test [3], the result was inactive. Further, in test [2], the inhibition result was “inactive”. For the same molecule, the 50% inhibitory concentration (IC50) in test [5] was 123 nM. Moreover, in test [6], the EC50 was 41 nM.

In the case of `CC[C@H](C)[C@H](NC(=O)c1ccccc1Oc1ccccc1)c1nc(C(=O)N[C@@H](CCCNC(=N)N)C(=O)O)co1`, the result in test [3] was Active. Further, the inhibition result in test [2] was “inactive”. For the same molecule, the IC50 in test [5] was found to be 55 nM.

As to `CC[C@H](C)[C@H](NC(=O)c1cccc(OC)c1OC)c1nc(C(=O)N[C@@H](CCCNC(=N)N)C(=O)O)co1`, the inhibition entry in test [2] is “inactive”. The molecule also registered an IC50 in test [5] of 710 nM.

For `CC[C@H](C)[C@H](NC(=O)c1ccccc1)c1nc(C(=O)N[C@@H](CCCNC(=N)N)C(=O)O)co1`, in test [2], the inhibition result was “inactive”. In test [5], this molecule gave a concentration for half-maximal inhibition (IC50) of 27 nM.

As to `CC[C@H](C)[C@H](NC(=O)C(c1ccccc1)c1ccccc1)c1nc(C(=O)N[C@@H](CCCNC(=N)N)C(=O)O)co1`, the inhibition entry in test [2] is “inactive”. In test [5], this molecule yielded an IC50 of 137 nM.

For the molecule `CC[C@H](C)[C@H](NC(=O)CCC(=O)c1ccc(-c2ccccc2)cc1)c1nc(C(=O)N[C@@H](CCCNC(=N)N)C(=O)O)co1`, the outcome in test [3] was inactive. Further, the inhibition result in test [2] is “inactive”. Further, in test [5], the IC50 came to 150 nM.

The record behind these values is ChEMBL document CHEMBL3734743, “Potent complement C3a receptor agonists derived from oxazole amino acids: Structure-activity relationships” (Bioorg Med Chem Lett, 2015).
